Results reported in patent US20020006915A1, “Use of COX-2 inhibitors to treat sepsis, complications thereof, and EP receptor modulation” (priority 2000, published 2002).
Marks after values point to notes of the source that are not given here.

Legend:
plasma PGE2 = test: Plasma PGE2 of mice at 6 h after traumatic injury; assay type: in vivo, BALB/c mice; conditions: for PGE2 levels at 6 h: pooled serum n=6
Protocol: Vehicle mice were injected with a 4% DMSO solution. To evaluate the efficacy of NS-398 on plasma PGE2 levels, mouse blood was collected at 6 hours after injury±treatment. […] At 6 hours after trauma, plasma PGE2 levels were increased from […] to 49,733 […]).

COX-2 mRNA [1] = test: COX-2 mRNA expression in LPS stimulated splenic macrophages by RT-PCR (3 doses within 24 h); assay type: in vivo, BALB/c mice; conditions: traumatized mice + NS-398, 3 doses within 24 h, day 7
Protocol: Isolated splenic macrophages were treated with lipopolysaccharide (LPS) (10 ng/ml) for six hours.
To evaluate the relative expression of COX-2 mRNA, splenic macrophages were treated as previously described and harvested by RT-PCR.

[2] = system: BALB/c mice given a septic challenge by cecal ligation and puncture; test: Survival after septic challenge (cecal ligation and puncture) on day 7 after trauma, 3 doses of NS-398 within 24 h; assay type: in vivo
Excerpt: A value of p<0.05 was considered significant. […] A value of p<0.05 was considered significant.

[3] = Body weight and splenocyte counts 7 days after trauma (NS-398 twice a day over 7 days); assay type: in vivo, BALB/c mice; conditions: for Body Wt.: day 7
Protocol: Animals, Experimental Protocol, NS-398 preparation were as described in Example I. Macrophages were prepared as described initially under “Macrophage Preparation ” in Example I. After lysis of erythrocytes with ammonium chloride solution and centrifugation as described in Example I, macrophages were further prepared by resuspending the pellet in RPMI-1640 (Gibco BRL, Life Technologies Inc) containing 2 mmol/L L-glutamine, 100 U/mL penicillin, 100 μg/mL streptomycin, 0.25 μg/mL amphotericin B, and 10% heat-inactivated fetal calf serum (Gibco BRL, Life Technologies Inc), counted via hemocytometer and diluted to a final concentration of 5×10^6 cells/mL, and plated in 96 well plates in a volume of 0.2 mL per well. After allowing macrophages to adhere for 2 hours, the remaining cells were suctioned off and the macrophages were cultured in the +/−1 ng LPS 055:B5 (Sigma, St. Louis, Mo.) per mL at 37° C. in 5% carbon dioxide incubators. Supernatants were harvested at 24 hours and stored at −70° C. until analysis for batch enzyme-linked immunosorbent assay processing to determine prostaglandin and cytokine production.
Body weight and splenocyte recovery after injury±NS-398 were recorded.
(§1) BALB/C mice (n=8/group) were given 10mg/kg NS398 intraperitoneally BID for 7 days, starting immediately after sham injury or trauma (femur fracture+40% hemorrhage). Four groups, sham+placebo (C); sham+NS398 (CN); trauma+placebo (T); or trauma+NS398 (TN) were studied. On day 7 after trauma, mice were sacrificed and splenic macrophages evaluated for PGE2, TNF-α and NO production (via Student's t-test). In a separate study, mice (n=10-11/group) were traumatized and given NS398 for 7 days. On day 7, cecal ligation and puncture was performed, and mice evaluated for survival over 3 weeks (via Log-rank test).

COX-2 mRNA [4] = test: COX-2 mRNA in splenic macrophages by RT-PCR (NS-398 over 7 days); assay type: in vivo, BALB/c mice; conditions: trauma + NS-398 over 7 days
Protocol: Isolated splenic macrophages were treated with LPS (10 ng/mL) for 6 hours. Extraction of mRNA was done with an RNA extraction kit (Qiagen, Inc.).

IκB-α = test: Western blot of cytosolic IκB-α in splenic macrophages; assay type: in vivo, BALB/c mice; conditions: NS-398 treatment after trauma, over 7 days
Protocol: Cytoplasmic fractions were collected after splenic macrophages were stimulated (as described above) and then boiled in equal volumes of loading buffer (125 mM Tris-HCl, pH 6.8, 4% sodium dodecyl sulfate, 20% glycerol and 10% 2-mercaptoethanol) for 3 minutes and were then separated by electrophoresis on a tris-glycine gradient gel. The proteins were then transferred to nitrocellulose membranes (Xcell II Blot Module; Novex). The membranes were blocked with 10% non-fat dried milk in Tris-buffered saline (TBS), pH 7.6, containing 0.05% tween-20 (TTBS) for 1 hour and then incubated with a polyclonal rabbit anti-mouse antibody to IκB-α (Santa Cruz Laboratories) for 45 minutes. After washing twice in TTMS, the blots were incubated with a peroxidase-conjugated goat anti-rabbit IgG secondary antibody for 15 minutes. The blots were washed in TTBS for 5 minutes three times, then in TBS for 5 minutes, incubated in enhanced chemiluminescence reagents (ECL, Amersham Life Sciences, Buckingham, England) and exposed on radiographic film (Kodak, Rochester, N.Y.).

[5] = system: BALB/c mice subjected to cecal ligation and puncture; test: Survival after cecal ligation and puncture 7 days after trauma, NS-398 twice a day over 7 days; assay type: in vivo
Excerpt: All cytokine results are reported as mean±SEM of 8 mice per group. The ANOVA was used to determine the significance of the differences between means of traumatized±treatment versus control±treatment groups. A P value of <0.05 was considered significant. For survival studies, Kaplan-Meier (Log-rank) statistical analysis was used to compare all four groups studied. A P value of <0.05 was considered significant.
To evaluate the biological relevance of NS-398, mice were randomized into the four treatment groups. After 7 days, all mice were subjected to cecal ligation and puncture (CLP) and followed for survival over 10 days, when remaining mice were euthanized. […] Only 9% of control mice survived after 200 hours compared to a significant increase in survival of trauma+NS-398 treated mice in which 45% survived.
as §1

With `CS(=O)(=O)Nc1ccc([N+](=O)[O-])cc1OC1CCCCC1` [NS-398, N-(2-cyclohexyloxy-4-nitrophenyl)methanesulfonamide] the “PGE2 levels at 6 h” value (plasma PGE2; Control + NS-398, plasma) was 35,961 pg/ml, the “PGE2 levels at 6 h” value (plasma PGE2; Trauma + NS-398, plasma) was 29,902 pg/ml and the plasma PGE2 levels (plasma PGE2; injured mice treated with NS-398 (TN), 6 hours after trauma) was 29900 pg/mL. For the same compound, the “COX-2 mRNA levels relative to GAPDH” value (COX-2 mRNA [1]) was “attenuated the levels of COX-2 mRNA to below control levels”, the “COX-2 mRNA levels relative to GAPDH” value (COX-2 mRNA [1]; listed as NS398) was “significant decreases” and the survival ([2]; T + NS, 3 i.p. injections of 10 mg/kg, CLP on day 7, n=10-12) was 92%#. For the same compound, the survival ([2]; control mice treated with NS-398) was 66%, the survival ([2]; traumatized mice treated with NS-398) was 92% and the “Body Wt.” value ([3]; Control + NS-398, twice a day over 7 days) was 18.3 ± 0.3 g. For the same compound, the “Body Wt.” value ([3]; Trauma + NS-398, twice a day over 7 days) was 16.7 ± 0.7 g, the “difference in body weight” value ([3]; control versus trauma+NS-398 mice, 7 days after trauma) was “no significant difference” and the “COX-2 mRNA levels” value (COX-2 mRNA [4]) was “decreased this induction”. For the same compound, the “cytosolic IκB” value (IκB-α) was “an increase in cytosolic IκB”, the survival ([5]; C + NS398, 10 mg/kg i.p. BID for 7 days, CLP on day 7) was 0% and the survival ([5]; T + NS398, 10 mg/kg i.p. BID for 7 days, CLP on day 7) was 45%*. The “survival (in words)” value ([5]; control+NS-398 mice after CLP) was “died shortly after CLP” and the survival ([5]; trauma+NS-398 treated mice, after 200 hours after CLP) was 45%.
